Test results reported in patent US20240092800A1, “USP13 INHIBITORS AND METHODS OF USE THEREOF” (GEORGETOWN UNIVERSITY, priority 2021, published 2024).

Key:
[1] = tested on: human alpha-synuclein; test: Alpha-synuclein levels via ELISA in alpha-synuclein-transfected SHSY5Y cells; type: cell-based; conditions: 5 hours, concentration between 1 and 0.1 nM
Experimental: Cell lines, transfection, and treatment.
Alpha-Synuclein Enzyme-Linked Immunosorbent Assay (ELISA). ELISAs for total human alpha-synuclein (Millipore; Burlington, MA) were conducted using Milliplexed ELISA. Briefly, Xmap technology uses magnetic microspheres that are internally coded with two fluorescent dyes. Through precise combinations of these two dyes, multiple proteins are simultaneously measured within a sample. Each of these spheres is coated with a specific capture antibody. The capture antibody binds to the detection antibody and a reporter molecule, completing the reaction on the surface of the bead.
(§1) A total of 25 μL soluble protein was incubated overnight at 4° C. with 25 μL of a mixed bead solution. After washing, samples were incubated with 25 μL detection antibody solution for 1.5 hours at room temperature. Streptavidin-phycoerythrin (25 μL) was added to each well containing the 25 μL of detection antibody solution. Samples were then washed and suspended in 100 μL of sheath fluid. Samples were then run on MAGPIX with Xponent software. The median fluorescent intensity (MFI) data were analyzed using a 5-parameter logistic or spline curve-fitting method for calculating analyte concentrations in samples. Specific alpha-synuclein ELISAs were performed on tissue soluble extracts from midbrain lysates in 1XSTEN buffer. The ELISA for USP13 (MyBioSource, Cat # MBS9335287), Human alpha-synuclein (Biolegend, Cat #844101) and specific p-Tau ser396 (Invitrogen, KHB7031) were performed on cell or brain tissue extracts as described above according to manufacturers' protocol.

[2] = Pharmacokinetics in brain and serum of C57BL/6 mice (UHPLC-MS/MS); type: in vivo, mouse; conditions: 10 mg/kg I.P. single dose
Experimental: Pharmacokinetics Studies. […] Brain and serum samples were collected at 1, 2, 3, 4, 8 and 12 h (n=3 per time point). Animals injected with vehicle (DMSO) were used for background subtraction. Stock solution of the drug (1 mg/mL) and internal standards were prepared in methanol. Intermediate solutions used for the calibrators and control samples were serial-diluted in methanol/water (1:1). Preparation of the calibration curve standards and quality samples (QC) were performed by mixing the intermediate dilutions in blank samples (brain homogenates, serum). […] Serum and brain samples were stored at −80° C. and then thawed to room temperature prior to preparation. The brains were homogenized in MilliQ water (1 mg brain: 10 μL water). Proteins were precipitated in both brain and serum samples by mixing 25 μL aqueous sample with 75 μL internal standard working solution. The mixture was centrifuged at 12,300 g for 5 min. Thereafter, 75 μL of each supernatant and 25 μL of MilliQ water were pipetted into a 96-well PCR plate (Fisher Scientific, Dawsonville, GA,USA).
Briefly, the UHPLC-MS/MS system included an Elute HTG binary gradient UHPLC pump, an Elute column oven and an EVOQ Elite triple quadrupole mass spectrometer (all from Bruker Daltonik GmbH, Bremen, Germany) equipped with an electrospray ionization (ESI) source operating in a positive mode. The samples were injected by use of a PAL auto sampler (CTC Analytics, Zwingen, Switzerland) equipped with a 10-μL sample loop; the samples were kept in a PAL stack cooler for 6 microtiter plates and operating at +6° C. The system was controlled by a Compass 2.0/HyStar 4.0 software (Bruker); the compound screening and quantitation was performed by a TASQ 2.2 data acquisition and processing software (Bruker). The mass spectrometer was supplied by nitrogen and air generated by a Genius 3045 nitrogen/air generator (Peak Scientific Instruments, Inchinnan, Scotland, UK). The ESI parameters were as follows: probe gas flow 50, nebulizer gas flow 60, probe temperature +400° C., cone gas flow 20, cone temperature +350° C., CID gas Ar 1.5 mTorr. The mass spectra were scanned in the MRM mode to find the optimal collision energies for the test compounds and their respective precursor ions.
For chromatographic separation, an YMC-Ultra HT Hydrosphere C18 column (2.0×100 mm, 2 μm particle size) and an YMC-Hydrosphere 2.1×5 mm guard column (YMC Co. Ltd., Kyoto, Japan) were used. The mobile phase A was 10 mM ammonium formate, pH 4.3, in water; the mobile phase B was 10 mM ammonium formate, pH 4.3, in 10% water, 50% acetonitrile and 40% isopropyl alcohol. The mobile phase gradient was as follows (min—A/B%): 0 min—50/50, 0.5 min—50/50, 2.0 min—20/80, 3 min—20/80, 3.1 min—50/50, 4.5 min—50/50. The flow rate was 450 μL/min, and the column temperature was set at 50° C. The sample injection volume was 10 μL.

[3] = tested on: tyrosine hydroxylase (TH); test: Tyrosine hydroxylase staining in striatum of TgA53T mice; type: in vivo, mouse; conditions: 40 mg/Kg I.P. daily for 7 days, vs DMSO
Experimental: Immunohistology. Animals were deeply anesthetized with a mixture of xylazine and ketamine (1:8), washed with normal saline for 1 min and then perfused with 4% paraformaldehyde (PFA) for 15-20 min. Brains were quickly dissected out and immediately stored in 4% PFA for 24 h at 4° C. and then transferred to 30% sucrose at 4° C. for 48 h. Brains were cut using a cryostat microtome into 20 μm thick coronal sections and stored at −20° C.
Immunohistochemistry was performed on the 20 μm thick brain sections for evaluation of ubiquitination of alpha-synuclein. The antibodies used were human alpha-synuclein monoclonal antibody (Thermo Fisher, AHB0261, Rockford, IL, USA) and ubiquitin polyclonal antibody (Thermo Fisher, PA3-16717, Rockford, IL, USA). The optic densitometry of co-localization of ubiquitin with alpha-synuclein was measured using Image J. Tyrosine hydroxylase (TH) is the limiting enzyme in DA synthesis, so probing for TH+ neurons will help to evaluate the status of DA producing neurons in the SN and their terminals in the striatum. We performed fluorescent staining of TH+ in striatum and conducted optic densitometry measurement of striatal DA terminals. Nuclear staining with 4,6-diamidino-2-phenylindole was performed according to manufacturer's protocols (Life Technologies, Rockford, IL, USA).

[4] = tested on: murine tau; test: p-Tau ser396 ELISA in TgA53T mice; type: in vivo, mouse; conditions: 10 mg/Kg or 40 mg/Kg I.P. daily for 7 days
Experimental: as §1

[5] = tested on: human SHSY5Y neuroblastoma cells; test: Cell viability by MTT and LDH assays; conditions: 5 hours, up to 1 mM concentration
Experimental: Human SHSY-5Y neuroblastoma cells were cultured in Dulbecco's Modified Eagle's Medium (DMEM) (ThermoFisher Scientific; Waltham, MA) with 10% Fetal Bovine Serum (FBS) (ThermoFisher) and 1% Penicillin-Streptomycin (PenStrep, ThermoFisher) and incubated at 37° C. under atmospheric oxygen concentrations (21%) with 5% CO2. SHSY-5Y cells were cultured in DMEM with Ham's F12 (1:1) (ThermoFisher) with 20% FBS, 1% PenStrep. Cells were plated at a density tailored to reach 70-80% confluence at the beginning of every experiment. SH-SY5Y cells were transiently transfected for 24 hours with human wild-type α-synuclein using Fugene HD transfection reagent (Promega; Madison, WI) before fresh culture media and drug were added.
Cell viability was determined via lactate dehydrogenase assay on culture media, (ThermoFisher) and MTT assay on plated cells (ThermoFisher).

[6] = tested on: human alpha-synuclein; test: Alpha-synuclein levels in TgA53T mice (WB, ELISA, DAB staining); type: in vivo, mouse; conditions: 10 mg/kg or 40 mg/kg I.P. daily for 7 days, vs DMSO

Q: With `Fc1ccc2nccc(OCc3ccccc3)c2c1` [4-(Benzyloxy)-6-fluoroquinoline] as the compound, how does the “level of alpha-synuclein via ELISA” value [1] read?
A: significantly reduce the level of alpha-synuclein

Q: And the Brain/serum ratio ([2]; 10 mg/kg)?
A: 28.0%

Q: And the AUC ([2]; brain)?
A: 0.1643 µM·h

Q: And the “T1/2 (elimination)” value ([2]; brain)?
A: 2.32 h

Q: And the AUC ([2]; serum)?
A: 0.5994 µM·h

Q: What about the “T1/2 (elimination)” value ([2]; serum) of the same compound?
A: 1.84 h

Q: And the Tmax ([2]; serum)?
A: 1 h

Q: What about the “staining of tyrosine hydroxylase (TH)” value [3] of the same compound?
A: did not show any noticeable effects

Q: What about the “murine tau levels (ptau396 ELISA)” value [4] of the same compound?
A: no effect

Q: And the “cell death in two viability assays (MTT and LDH)” value [5]?
A: do not cause cell death

Q: What about the “human alpha-synuclein in midbrain lysates by WB” value [6] of the same compound?
A: significantly reduced
